The values below come from publication PMC3654253 (Biochemical pharmacology, 2013).

“Also recorded” adds a separate entry of the source.

Test [1] concerns insect NaV channels (cockroach DUM neurons). The experiment in a line: Whole-cell patch-clamp, NaV channel currents. In kind it is cell-based, American cockroach (Periplaneta americana).
For another test, the system named is NaV channels. Particulars: cited from earlier work.

Regarding `NC1=N[C@H](O)[C@H]2[C@H]3O[C@]4(O)O[C@@H]([C@@H](O)[C@@]2(N1)[C@@H]4O)[C@]3(O)CO` [TTX, tetrodotoxin], the “inhibition of INa by TTX” value in test [1] is given as “complete INa inhibition; also recorded: Complete block of INa”. Moreover, in the test on NaV channels, the “effect on peak INa” value is recorded as “reduce peak INa”.
